ChEMBL document CHEMBL3352159, “Protolichesterinic acid derivatives: α-methylene-γ-lactones as potent dual activators of PPARγ and Nrf2 transcriptional factors” (Bioorg Med Chem Lett, 2014)
Active and inactive are the calls of the source. The calls are words filed in the database; no cut-off is given here.

Tests used:
[1] = Cytotoxicity against human A375M cells after 4 days by MTT assay; format: functional, cell-based; conditions: 96 h
[2] = tested on: Peritoneal macrophage cell; assay: Induction of Dectin-1 mRNA expression in mouse peritoneal macrophages isolated from PPARgamma -/- mouse treated at 5 uM for 5 hrs by qRT-PCR analysis; format: functional, cell-based
[3] = tested on: Peritoneal macrophage cell; assay: Induction of Dectin-1 mRNA expression in mouse peritoneal macrophages isolated from PPARgamma -/- mouse treated at 1 uM for 5 hrs by qRT-PCR analysis; format: functional, cell-based
[4] = molecular target: T1, Peroxisome proliferator-activated receptor gamma (Mus musculus) (UniProt P37238); assay: Activation of PPARgamma in mouse peritoneal macrophages assessed as increase in Dectin-1 mRNA expression treated for 5 hrs by qRT-PCR analysis
T1 sequence (whole entry): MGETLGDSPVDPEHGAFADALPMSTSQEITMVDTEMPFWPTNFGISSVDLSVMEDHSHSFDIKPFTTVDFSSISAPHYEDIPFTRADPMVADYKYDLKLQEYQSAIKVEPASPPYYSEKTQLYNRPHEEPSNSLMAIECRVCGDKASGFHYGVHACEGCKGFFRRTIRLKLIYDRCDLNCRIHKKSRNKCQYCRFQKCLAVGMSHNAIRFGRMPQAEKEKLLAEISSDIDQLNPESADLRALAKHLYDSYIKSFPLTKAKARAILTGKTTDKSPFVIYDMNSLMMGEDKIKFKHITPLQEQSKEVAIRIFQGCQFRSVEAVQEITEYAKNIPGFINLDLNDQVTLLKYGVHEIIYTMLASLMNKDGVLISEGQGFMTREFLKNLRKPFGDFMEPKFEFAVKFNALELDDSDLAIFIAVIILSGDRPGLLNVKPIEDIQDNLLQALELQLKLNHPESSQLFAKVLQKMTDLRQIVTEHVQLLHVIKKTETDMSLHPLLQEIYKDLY

[5] = tested on: Peritoneal macrophage cell; assay: Induction of NQO-1 mRNA expression in mouse peritoneal macrophages isolated from PPARgamma -/- mouse treated at 1 uM for 5 hrs by qRT-PCR analysis; format: functional, cell-based
[6] = molecular target: Nuclear factor erythroid 2-related factor 2 (Mus musculus) (UniProt Q60795); assay: Activation of Nrf2 in mouse peritoneal macrophages assessed as increase in HO-1 mRNA expression treated for 5 hrs by qRT-PCR analysis
[7] = Cytotoxicity against mouse peritoneal macrophages after 24 hrs; format: cell-based; conditions: Peritoneal macrophage cell
[8] = tested on: Peritoneal macrophage cell; assay: Induction of HO-1 mRNA expression in mouse peritoneal macrophages isolated from PPARgamma -/- mouse treated at 1 uM for 5 hrs by qRT-PCR analysis; format: functional, cell-based
[9] = molecular target: Nuclear factor erythroid 2-related factor 2 (Mus musculus) (UniProt Q60795); assay: Activation of Nrf2 in mouse peritoneal macrophages assessed as increase in NQO-1 mRNA expression treated for 5 hrs by qRT-PCR analysis
[10] = tested on: Peritoneal macrophage cell; assay: Induction of CD36 mRNA expression in mouse peritoneal macrophages isolated from PPARgamma -/- mouse treated at 1 uM for 5 hrs by qRT-PCR analysis; format: functional, cell-based
[11] = molecular target: T1, Peroxisome proliferator-activated receptor gamma (Mus musculus); assay: Activation of PPARgamma in mouse peritoneal macrophages assessed as increase in CD36 mRNA expression treated for 5 hrs by qRT-PCR analysis

Chain of Nuclear factor erythroid 2-related factor 2 (Mus musculus) (Q60795 whole entry, looked up): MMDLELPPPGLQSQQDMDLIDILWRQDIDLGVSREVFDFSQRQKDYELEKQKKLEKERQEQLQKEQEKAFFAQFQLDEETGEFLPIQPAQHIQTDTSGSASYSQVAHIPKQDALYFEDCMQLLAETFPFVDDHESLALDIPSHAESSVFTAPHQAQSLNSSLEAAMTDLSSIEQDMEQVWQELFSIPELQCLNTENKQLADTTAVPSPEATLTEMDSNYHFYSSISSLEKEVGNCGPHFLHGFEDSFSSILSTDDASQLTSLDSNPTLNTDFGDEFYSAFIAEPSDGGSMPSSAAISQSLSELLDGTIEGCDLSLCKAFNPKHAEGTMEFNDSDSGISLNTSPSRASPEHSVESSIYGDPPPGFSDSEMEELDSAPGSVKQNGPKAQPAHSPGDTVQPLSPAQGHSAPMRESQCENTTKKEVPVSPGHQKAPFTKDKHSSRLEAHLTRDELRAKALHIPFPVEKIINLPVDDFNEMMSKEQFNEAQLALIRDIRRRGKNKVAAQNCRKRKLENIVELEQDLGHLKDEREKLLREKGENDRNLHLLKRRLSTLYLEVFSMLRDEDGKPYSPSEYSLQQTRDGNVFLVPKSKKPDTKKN

For `C=C1C(=O)OC(CCCCCCCCCCCCC)C1CC` (mixture of isomers), which IC50 [1] is on record?
The IC50 was 4.1 µM.

Which Activity [2] does the source give for `CN(CCOc1ccc(CC2SC(=O)NC2=O)cc1)c1ccccn1` (stereo unspecified) here?
Its Activity is “inactive”.

And the Activity [3]?
Its Activity is “inactive”.

And the Activity [4]?
Its Activity is “Active”.

Which IC50 [1] does the source give for `C=C1C(=O)OC(c2ccccc2)C1CCc1ccccc1` (mixture of isomers) here?
The IC50 was 2.8 µM.

With `C=C1C(=O)OC(c2ccccc2)C1CCCC` (mixture of isomers) as the molecule, how does the Activity [5] read?
The Activity was “inactive”.

And the Activity [2]?
The Activity was “inactive”.

And the Activity [6]?
The Activity was “Active”.

What about the Activity [3] of the same molecule?
The Activity was “inactive”.

What about the IC50 [7] of the same molecule?
The IC50 was 12.7 µM.

What about the Activity [4] of the same molecule?
Its Activity is “Active”.

And the IC50 [1]?
Its IC50 is 7.8 µM.

And the Activity [8]?
The Activity was “inactive”.

What about the Activity [9] of the same molecule?
The Activity was “Active”.

And the Activity [10]?
The Activity was “inactive”.

What about the Activity [11] of the same molecule?
Its Activity is “Active”.

With `C=C1C(=O)OC(c2ccccc2)C1c1ccccc1` (mixture of isomers) as the molecule, how does the IC50 [1] read?
The IC50 was 6.3 µM.

What does the source list for `CCCCCCCCCCCCCC1C=C(C)C(=O)O1` (racemic)?
Activity [2]: inactive; Activity [3]: inactive; IC50 [7]: > 100 µM; Activity [4]: Active; IC50 [1]: > 100 µM

For `C=C1C(=O)O[C@@H](CCCCCCCCCCCCC)[C@@H]1C(=O)O` [PROTOLICHESTERINIC ACID], which IC50 [1] is on record?
The IC50 was 8.6 µM.

With `C=C1CC(c2ccccc2)OC1=O` (stereo unspecified) as the molecule, how does the IC50 [1] read?
Its IC50 is 6.7 µM.

Which Activity [2] does the source give for `CCCCCCCCCCCCC[C@H]1OC(=O)C(C)=C1C(=O)O` here?
Its Activity is “inactive”.

And the Activity [3]?
The Activity was “inactive”.

What about the IC50 [7] of the same molecule?
The IC50 was greater than 100 µM.

And the Activity [4]?
The Activity was “Active”.

What about the IC50 [1] of the same molecule?
Its IC50 is 72 µM.

What does the source list for `C=C1CC(CCCC)OC1=O` (stereo unspecified)?
Activity [5]: inactive; Activity [2]: inactive; Activity [6]: Active; Activity [3]: inactive; IC50 [7]: 31.2 µM; Activity [4]: Active; IC50 [1]: 17.3 µM; Activity [8]: inactive; Activity [9]: Active; Activity [10]: inactive; Activity [11]: Active

With `C=C1C(=O)OC(CCCC)C1CCc1ccccc1` (stereo unspecified) as the molecule, how does the IC50 [1] read?
The IC50 was 5.5 µM.

Which IC50 [1] does the source give for `C=C1CC(CCc2ccccc2)OC1=O` (stereo unspecified) here?
Its IC50 is 8.7 µM.

For `C=C1C(=O)OC(CCc2ccccc2)C1CCCC` (mixture of isomers), which IC50 [1] is on record?
The IC50 was 5 µM.

Which IC50 [1] does the source give for `C=C1C(=O)OC(CCCCCCCCCCCCC)C1CCc1ccccc1` (mixture of isomers) here?
Its IC50 is 3.3 µM.

With `C=C1C(=O)OC(CCc2ccccc2)C1CCc1ccccc1` (stereo unspecified) as the molecule, how does the IC50 [1] read?
Its IC50 is 2.7 µM.

Which IC50 [1] does the source give for `C=C1CC(CCCCCCCCCCCCC)OC1=O` (stereo unspecified) here?
Its IC50 is 3.9 µM.
